How the values were obtained:
[1] = tested on: SIM2 stably expressing lines (KYSE510-SIM2-27 and -37, TE8-SIM2-2 and -3, T.Tn-SIM2-9 and -23) of esophageal squamous cell carcinoma cell lines; assay: anticancer-agent sensitivity test of SIM2-gene stably expressing lines, two-dimensional culturing, viable cell count (trypan blue); assay type: cell-based; details: for sensitivities to anticancer agents of SIM2 stably expressing lines in comparison with control-vector introduced lines: two-dimensional culture, 3 days, CDDP 2, 5, 10 μM, 5-FU 10 μM, DTX 1 nM, versus KYSE510-Mock, TE8-Mock, T.Tn-Mock
Protocol: (§1) The SIM2 gene was introduced into TE8 obtained from RIKEN BRC and KYSE510 and T. Tn obtained from JCRB Cell Bank. The resultant was cultured in a medium containing 400 μg/ml of G-418 for approximately 2 weeks. The G418 resistant colonies were isolated and cultured. The SIM2 gene expression was confirmed by an RT-PCR method. Thus, SIM2-gene stably expressing lines were established. Cell lines in which only a GFP expression plasmid vector was introduced were prepared as control cell lines. To extract the total RNAs and evaluate the differentiation-inducing activities of the SIM2-gene stably expressing lines, the SIM2-gene stably expressing lines were each seeded into NanoCulture (registered trademark) Plate and then cultured with a normal medium for 3 days. The total RNA was extracted, and an RT-PCR method was performed. The cDNA was synthesized using SuperScript (registered trademark) III First-Strand Synthesis System for RT-PCR. The diluted cDNA was mixed with AccuPrime (registered trademark) Taq DNA Polymerase System (Invitrogen), primers, and nuclease-free water, and amplified using GeneAmp (registered trademark) PCR System 9700 (Applied Biosystems Inc.). The resultant was quantified and compared by agarose gel electrophoresis.
To evaluate the sensitivities of the SIM2-gene stably expressing lines to cisplatin (CDDP), 5-fluorouracil (5-FU), and docetaxel (DTX), an anticancer-agent sensitivity test was conducted. The SIM2-gene stably expressing lines were each seeded into a 6-well plate, cultured with a normal medium for 1 day, and then cultured with a normal medium or a medium supplemented with CDDP (2 μM, 5 μM, 10 μM), 5-FU (10 μM), or DTX (1 nM) for 3 days. After the chemical treatment was completed, the cells were collected using 0.25% trypsin/EDTA and stained with trypan blue. After that, the number of viable cells was counted.

[2] = tested on: SIM2 stably expressing lines (T.Tn-SIM2-9 and -23); assay: cisplatin long-term sensitivity test of SIM2-gene stably expressing lines, three-dimensional culturing, viable cell count; assay type: cell-based; details: 14 days, CDDP 5×10^−6 M, T.Tn-SIM2-9 and -23 versus T.Tn-Mock
Protocol: as §1, with “The diluted cDNA was mixed with AccuPrime (registered trademark) Taq DNA Polymerase System (Invitrogen), primers, and nuclease-free water, and amplified using GeneAmp (registered trademark) PCR System 9700 (Applied Biosystems Inc.).” left out
To evaluate the sensitivities of the SIM2-gene stably expressing lines to CDDP long-term administration, an anticancer-agent sensitivity test was conducted employing three-dimensional culturing. […] After that, the number of viable cells was counted.

SMILES	sensitivities to anticancer agents of SIM2 stably expressing lines in comparison with control-vector introduced lines [1]	CDDP effect in 3 days (two-dimensional culturing) ([1]; concentration near IC50, 3 days, FIG. 6)	sensitivities to CDDP of SIM2 stably expressing lines in comparison with control-vector introduced line [2]
O=c1[nH]cc(F)c(=O)[nH]1 [5-fluorouracil]	increased		
N.N.[Cl][Pt][Cl] [cisplatin]	increased	significant but small	remarkably increased
CC(=O)O[C@@]12CO[C@@H]1C[C@H](O)[C@@]1(C)C(=O)[C@H](O)C3=C(C)[C@@H](OC(=O)[C@H](O)[C@@H](NC(=O)OC(C)(C)C)c4ccccc4)C[C@@](O)([C@@H](OC(=O)c4ccccc4)[C@H]21)C3(C)C [docetaxel]	increased		
